Laboratory results from patent publication EP4417202A1, “ANTI-CANCER ACTION OF BAG1-SELECTIVE IMIDAZOPYRIDINE COMPOUNDS IN STEROID HORMONE RECEPTOR-POSITIVE BREAST AND PROSTATE CANCER” (Karlsruher Institut für Technologie, priority 2023, dated 2024).

Legend:
[1] = tested on: 22Rv.1; assay: Clonogenic assay (clonal expansion); format: cell-based; conditions: Prostate Cancer (22Rv.1), AR+, inhibition of clonal expansion
Procedure: (§1) Cells were seeded at a density of 1-2×10^3 cells/well in a 6 well plate in RPMI 1640 supplemented with 10% FBS, penicillin (100 u/ml), streptomycin (100 u/ml), and L-glutamine (2 mM). Cells were treated with increasing concentrations of X15695 and cultured for 14 to 21 days. Medium and compounds were exchanged after 7 days. Cells were fixed with methanol/ acetic acid mixture (3:1 v/v) and the formation of colonies was visualized using 0.5% crystal violet (w/v) in 20% methanol (v/v). Plates were scanned in a conventional office scanner (Epson). The area covered by colonies was calculated using the ColonyArea Plugin for ImageJ.

[2] = tested on: LNCaP; assay: Clonogenic assay (clonal expansion); format: cell-based; conditions: Prostate Cancer (LNCaP), AR+, inhibition of clonal expansion
Procedure: as §1

[3] = tested on: MCF-7; assay: Clonogenic assay (clonal expansion); format: cell-based; conditions: Breast Cancer (MCF-7), ER+, inhibition of clonal expansion
Procedure: as §1

[4] = tested on: ZR75-1; assay: Clonogenic assay (clonal expansion); format: cell-based; conditions: Breast Cancer (ZR75-1), ER+, inhibition of clonal expansion
Procedure: as §1

[5] = tested on: ER^+ and AR^+ breast and prostate cancer cells; conditions: proliferation of ER^+ and AR^+ breast and prostate cancer cells, previously reported; cited from earlier work
[6] = tested on: T47D; assay: Clonogenic assay (clonal expansion); format: cell-based; conditions: Homo sapiens; Breast Cancer (T47D), ER+; inhibition of clonal expansion
Procedure: as §1

[7] = tested on: DU145; assay: Clonogenic assay (clonal expansion); format: cell-based; conditions: Homo sapiens, DU-145; Prostate Cancer (DU145), AR-; inhibition of clonal expansion
Procedure: as §1

[8] = tested on: PC3; assay: Clonogenic assay (clonal expansion); format: cell-based; conditions: Homo sapiens; Prostate Cancer (PC3), AR-; inhibition of clonal expansion
Procedure: as §1

[9] = tested on: ERα; conditions: MCF-7 cells
Procedure: For Western blotting, cells were lysed in NP-40 lysis buffer (1% NP-40, 50 mM Tris-HCl, pH 8.0, 150 mM NaCl, 5 mM EDTA) or 1× passive lysis buffer (Promega, Germany) for 15 min on ice. Cell debris was removed by centrifugation at 13,000 rpm for 10 min and used for SDS-polyacrylamide gel electrophoresis (PAGE) and Western blotting.
Western Blotting was carried out using standard protocols with antibodies: p53 (clone DO1), p53 (Sp5, Thermo Fisher Scientific Karlsruhe, Germany), Mdm2 (4B2, Abcam, Cambridge, UK). […] Secondary goat anti-mouse and goat anti-rabbit antibodies were purchased from DAKO (Bollschweil, Germany).

[10] = tested on: TRMCF-7 cells (tamoxifen resistant MCF-7 cells); assay: MTT cell viability assay; format: cell-based; conditions: 48 h
Procedure: […] Cells transfected with siRNA were incubated for 72 h after X15695 addition. Thereafter, the medium was exchanged for a fresh medium containing 0.5 mg/ml MTT (Sigma-Aldrich) and incubated at 37°C for 1 h to 4 h (depending on cell line) until intracellular purple formazan crystals were formed. The MTT solution was removed, and the purple crystals were dissolved in isopropanol and the optical absorbance at 595 nm was recorded using SpectraMax iD3, Molecular Devices, San Jose, CA, USA.

[11] = tested on: TRMCF-7 cells; assay: Clonogenic assay (clonal expansion); format: cell-based
Procedure: as §1

IC50 ([1]; Homo sapiens, 22Rv1) | IC50 ([3]; Homo sapiens, MCF7) | IC50 ([2]; Homo sapiens) | IC50 [6] | IC50 ([4]; Homo sapiens, ZR-75-1) | SMILES | also measured
641 ± 246 nM | 12 nM | – | – | – | Fc1ccc(-c2cn3cc(Br)ccc3n2)cc1 [Compound X19168, 6-bromo-2-(4-fluorophenyl)imidazo[1,2-a]pyridine] | –
4.4 ± 1.6 nM | 14.5 nM | < 0.1 nM | – | – | Fc1ccccc1-c1cn2cc(C(F)(F)F)cc(Cl)c2n1 [Compound X19720, 8-Chloro-2-(2-fluorophenyl)-6-(trifluoromethyl)imidazo[1,2-a]pyridine] | –
4.4 nM | 3.3 ± 0.9 nM | 0.2 nM | 86.1 ± 49.1 nM | 16.2 ± 4.7 nM | Cc1cc(Cl)c2nc(-c3ccc(F)cc3)cn2c1 [Compound X19724, 8-Chloro-2-(4-fluorophenyl)-6-methylimidazo[1,2-a]pyridine] | –
48.5 ± 13.3 nM | 6 ± 2.8 nM | – | – | 39.2 ± 24.3 nM | Cc1cc(Cl)c2nc(-c3ccccc3)cn2c1 [Compound X19728, 8-Chloro-6-methyl-2-phenylimidazo[1,2-a]pyridine] | –
7.5 ± 3.2 nM | 10 ± 4.3 nM | 0.1 nM | 57.1 nM | 31.8 nM | Fc1ccc(-c2cn3cc(C(F)(F)F)ccc3n2)cc1 [Compound X20046, 2-(4-Fluorophenyl)-6-(trifluoromethyl)imidazo[1,2-a]pyridine] | –

The next lines start with the compound.

SMILES | IC50 ([1]; Homo sapiens, 22Rv1) | IC50 ([3]; Homo sapiens, MCF7) | IC50 ([2]; Homo sapiens) | IC50 [6] | IC50 ([4]; Homo sapiens, ZR-75-1) | also measured
Fc1ccc(-c2nc3cc(C(F)(F)F)ccc3s2)cc1 [Compound A4B17, reference compound] | – | – | – | – | – | IC50 [1]: 3400 nM; IC50 [2]: 1600 nM; IC50 [3]: 1280 nM; IC50 [4]: 110 nM; IC50 values [5]: in the micromolar range
FC(F)(F)c1cc(Cl)c2nc(-c3ccccc3)cn2c1 [X19166/ X15696, 8-Chloro-2-phenyl-6-(trifluoromethyl)imidazo[1,2-a]pyridine] | 22.5 ± 6.6 nM | 7.9 ± 1.9 nM | < 0.1 nM | 44.7 ± 11.4 nM | 10.2 ± 2.7 nM | IC50 [7]: 3580 nM; IC50 [8]: 11900 nM
C[C@]12CC[C@@H]3c4ccc(O)cc4C[C@@H](CCCCCCCCC[S+]([O-])CCCC(F)(F)C(F)(F)F)[C@H]3[C@@H]1CC[C@@H]2O (stereo partly drawn) [fulvestrant, reference compound] | – | – | – | – | – | ERα downregulation over time ([9]; 1 µM, time course): rapidly downregulated ERα level within 4 h to 8 h recovering gradually thereafter; concentration sufficient to downregulate ERα ([9]; 8 h): ≤ 1 nM; inhibition of viability [10]: comparable activities; inhibition of clonal expansion [11]: slightly more efficacious than X15695
CC/C(=C(\c1ccccc1)c1ccc(OCCN(C)C)cc1)c1ccccc1 [tamoxifen] | – | – | – | – | – | inhibition of viability [10]: ineffective; inhibition of clonal expansion [11]: inactive
